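Values below derive from 48-hour exposures of cells grown in 96-well plates, with endpoints linearly interpolated between the two concentrations bracketing the appropriate inhibition level. TGI marks complete inhibition of growth.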
What was measured:
Assay in all cases: growth of human tumour cells (NCI), 48 h
DU-145 prostate = system: DU-145 prostate
MDA-MB-435 = system: MDA-MB-435
NCI/ADR-RES ovarian = system: NCI/ADR-RES ovarian
MCF7 breast = system: MCF7 breast
MDA-MB-231 breast = system: MDA-MB-231 breast
SW-620 colon = system: SW-620 colon
EKVX NSCLC = system: EKVX NSCLC
CCRF-CEM leukemia = system: CCRF-CEM leukemia
OVCAR-4 ovarian = system: OVCAR-4 ovarian
786-0 renal = system: 786-0 renal
SK-MEL-28 melanoma = system: SK-MEL-28 melanoma
MDA-N = system: MDA-N
SF-268 CNS = system: SF-268 CNS
A498 renal = system: A498 renal

In the case of `CNC(=O)N(CCC#N)CCCN(C(=O)NC)c1ccccc1`, the TGI (DU-145 prostate) is reported as greater than 100 µM, the TGI (MDA-MB-435) is reported as greater than 100 µM and the TGI (NCI/ADR-RES ovarian) is reported as greater than 100 µM. The TGI (MCF7 breast) was greater than 100 µM, the TGI (MDA-MB-231 breast) was greater than 100 µM and the TGI (SW-620 colon) was greater than 100 µM. It also gave a TGI (EKVX NSCLC) greater than 100 µM, a TGI (CCRF-CEM leukemia) greater than 100 µM and a TGI (OVCAR-4 ovarian) greater than 100 µM. It also gave a TGI (786-0 renal) greater than 100 µM, a TGI (SK-MEL-28 melanoma) greater than 100 µM and a TGI (MDA-N) greater than 100 µM.

Work on `c1ccc(-n2nc3ccc4nonc4c3n2)cc1` yielded a TGI (DU-145 prostate) greater than 100 µM, a TGI (MDA-MB-435) greater than 100 µM and a TGI (NCI/ADR-RES ovarian) greater than 100 µM. The TGI (MCF7 breast) was greater than 100 µM, the TGI (MDA-MB-231 breast) was greater than 100 µM and the TGI (SW-620 colon) was greater than 100 µM. It also gave a TGI (EKVX NSCLC) greater than 100 µM, a TGI (CCRF-CEM leukemia) greater than 100 µM and a TGI (SF-268 CNS) greater than 100 µM. For the same compound, the TGI (OVCAR-4 ovarian) was greater than 100 µM, the TGI (786-0 renal) was greater than 100 µM and the TGI (SK-MEL-28 melanoma) was greater than 100 µM. For the same compound, the TGI (MDA-N) was greater than 100 µM.

Work on `COc1cc(C2C(C#N)=C(N)OC3=C2CCS(=O)(=O)c2ccc(C)cc23)cc(OC)c1OC` (configuration not stated) yielded a TGI (DU-145 prostate) greater than 100 µM, a TGI (MDA-MB-435) greater than 100 µM and a TGI (NCI/ADR-RES ovarian) greater than 100 µM. The TGI (MDA-MB-231 breast) was greater than 100 µM, the TGI (SW-620 colon) was greater than 100 µM and the TGI (CCRF-CEM leukemia) was greater than 100 µM. For the same compound, the TGI (A498 renal) was greater than 100 µM, the TGI (SF-268 CNS) was greater than 100 µM and the TGI (OVCAR-4 ovarian) was greater than 100 µM. It also gave a TGI (786-0 renal) greater than 100 µM, a TGI (SK-MEL-28 melanoma) greater than 100 µM and a TGI (MDA-N) greater than 100 µM.

Compound `N#Cc1c(N)[nH]c(=S)c(C#N)c1-c1ccccc1` has a TGI (DU-145 prostate) greater than 100 µM, a TGI (MCF7 breast) greater than 100 µM and a TGI (MDA-MB-231 breast) greater than 100 µM. For the same compound, the TGI (SW-620 colon) was greater than 100 µM, the TGI (EKVX NSCLC) was greater than 100 µM and the TGI (CCRF-CEM leukemia) was greater than 100 µM. The TGI (A498 renal) was greater than 100 µM, the TGI (SF-268 CNS) was greater than 100 µM and the TGI (786-0 renal) was greater than 100 µM. For the same compound, the TGI (SK-MEL-28 melanoma) was greater than 100 µM and the TGI (MDA-N) was greater than 100 µM.

In the case of `Cc1ncc2c(=O)c3c(oc2n1)c1ccccc1n3Cc1ccccc1`, the TGI (DU-145 prostate) is reported as greater than 100 µM, the TGI (MDA-MB-435) is reported as greater than 100 µM and the TGI (NCI/ADR-RES ovarian) is reported as greater than 100 µM. It also gave a TGI (MCF7 breast) greater than 100 µM, a TGI (MDA-MB-231 breast) greater than 100 µM and a TGI (SW-620 colon) greater than 100 µM. The TGI (EKVX NSCLC) was greater than 100 µM, the TGI (CCRF-CEM leukemia) was greater than 100 µM and the TGI (SF-268 CNS) was greater than 100 µM. The TGI (786-0 renal) was greater than 100 µM, the TGI (SK-MEL-28 melanoma) was greater than 100 µM and the TGI (MDA-N) was greater than 100 µM.

With `CN(N)c1cc(=O)[nH]c(=O)[nH]1` the TGI (DU-145 prostate) was greater than 100 µM, the TGI (NCI/ADR-RES ovarian) was greater than 100 µM and the TGI (MDA-MB-231 breast) was greater than 100 µM. It also gave a TGI (SW-620 colon) greater than 100 µM, a TGI (EKVX NSCLC) greater than 100 µM and a TGI (CCRF-CEM leukemia) greater than 100 µM. It also gave a TGI (A498 renal) greater than 100 µM, a TGI (SF-268 CNS) greater than 100 µM and a TGI (OVCAR-4 ovarian) greater than 100 µM. The TGI (786-0 renal) was greater than 100 µM, the TGI (SK-MEL-28 melanoma) was greater than 100 µM and the TGI (MDA-N) was greater than 100 µM.

Work on `CC1=CC[C@@]2(CO)[C@@H]([C@@H]1C)[C@H]1CC[C@@H]3[C@@]4(C)CC[C@H](O)C(C)(C)[C@@H]4CC[C@@]3(C)[C@]1(C)C[C@@H]2O` yielded a TGI (DU-145 prostate) greater than 100 µM, a TGI (MDA-MB-435) greater than 100 µM and a TGI (NCI/ADR-RES ovarian) greater than 100 µM. It also gave a TGI (MCF7 breast) greater than 100 µM, a TGI (SW-620 colon) greater than 100 µM and a TGI (EKVX NSCLC) greater than 100 µM. The TGI (CCRF-CEM leukemia) was greater than 100 µM, the TGI (A498 renal) was 58.8 µM and the TGI (SF-268 CNS) was greater than 100 µM. It also gave a TGI (OVCAR-4 ovarian) greater than 100 µM, a TGI (786-0 renal) greater than 100 µM and a TGI (SK-MEL-28 melanoma) greater than 100 µM. For the same compound, the TGI (MDA-N) was greater than 100 µM.

`C=C(C)[C@@]1(OC(=O)c2cc([N+](=O)[O-])cc([N+](=O)[O-])c2)C[C@@H]2CCCC[C@@H]21` was tested, and the TGI (DU-145 prostate) was greater than 100 µM, the TGI (NCI/ADR-RES ovarian) was greater than 100 µM and the TGI (MCF7 breast) was greater than 100 µM. It also gave a TGI (MDA-MB-231 breast) greater than 100 µM, a TGI (SW-620 colon) greater than 100 µM and a TGI (EKVX NSCLC) greater than 100 µM. It also gave a TGI (CCRF-CEM leukemia) greater than 100 µM, a TGI (SF-268 CNS) greater than 100 µM and a TGI (OVCAR-4 ovarian) greater than 100 µM. For the same compound, the TGI (786-0 renal) was greater than 100 µM, the TGI (SK-MEL-28 melanoma) was greater than 100 µM and the TGI (MDA-N) was greater than 100 µM.

Reference: PubChem BioAssay (NCI)
